Experimental data from ChEMBL document CHEMBL1123600, “N6-(2,2-diphenylethyl)adenosine, a novel adenosine receptor agonist with antipsychotic-like activity” (J Med Chem, 1987).

Tests used:
Mus musculus [1] = assay: Effect on Motor activity in mouse following i.p. administration.; format: functional; conditions: ip
Adenosine receptor A1 = biological target: T1, Adenosine receptor A1 (Rattus norvegicus, UniProt P25099)
T1 sequence (P25099 whole entry): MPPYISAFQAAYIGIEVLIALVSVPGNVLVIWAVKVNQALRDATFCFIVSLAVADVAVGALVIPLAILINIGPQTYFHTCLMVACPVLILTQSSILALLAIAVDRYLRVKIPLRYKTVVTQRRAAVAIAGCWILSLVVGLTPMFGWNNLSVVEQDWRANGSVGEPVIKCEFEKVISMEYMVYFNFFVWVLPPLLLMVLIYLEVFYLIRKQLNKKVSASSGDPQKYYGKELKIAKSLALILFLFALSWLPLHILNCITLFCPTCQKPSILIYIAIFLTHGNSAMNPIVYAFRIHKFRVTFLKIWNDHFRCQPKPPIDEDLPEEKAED
Description: Binding affinity to adenosine A1 receptor in rat whole brain membranes by [3H]N6-cyclohexyladenosine displacement.

Mus musculus [2] = assay: Effect on Ataxia in mouse following i.p. administration.; format: functional; conditions: ip
Rattus norvegicus [3] = species on record: Rattus norvegicus; assay: Effect on Sidman conditioned avoidance in rat.; format: functional
Rattus norvegicus [4] = assay: Effect on Motor activity(MA) in rat was measured as ED50 by perorally administration of compound.; format: functional; conditions: po
Rattus norvegicus [5] = assay: Effect on Ataxia(ATX) in rat was measured as ED50 by perorally administration of compound.; format: functional; conditions: po
Adenosine A2 receptor = Adenosine A2 receptor (Rattus norvegicus, UniProt P29276+P30543)
Description: Binding affinity to A2 adenosine receptor in rat striatal membranes by [3H]NECA (1-(6-amino-9H-purin-9-yl)-1-deoxy-N-ethyl-beta-D-ribofuranuronamide) displacement.

| Ki (Adenosine receptor A1) [nM] | Ki (Adenosine A2 receptor) [nM] | SMILES | ED50 (Mus musculus [1]) [mg/kg] | ED50 (Mus musculus [2]) [mg/kg] | ED50 (Rattus norvegicus [3]) [mg/kg] | ED50 (Rattus norvegicus [4]) [mg/kg] | ED50 (Rattus norvegicus [5]) [mg/kg] |
| --- | --- | --- | --- | --- | --- | --- | --- |
| 6.8 | 25 | OC[C@H]1O[C@@H](n2cnc3c(NCC(c4ccccc4)c4ccccc4)ncnc32)[C@H](O)[C@@H]1O | 1.3 | 145 | 2.5 | 2.2 | 31 |
| 146 | 2200 | OC[C@H]1OC(n2cnc3c(NCCCCC(c4ccccc4)c4ccccc4)ncnc32)[C@H](O)[C@@H]1O (stereo partly specified) | 30 | > 100 | – | – | – |
| 480 | 3800 | OC[C@H]1OC(n2cnc3c(NC(c4ccccc4)c4ccccc4)ncnc32)[C@H](O)[C@@H]1O (stereo partly specified) | 80 | > 100 | – | – | – |
| 79 | 290 | OC[C@H]1OC(n2cnc3c(NCCC(c4ccccc4)c4ccccc4)ncnc32)[C@H](O)[C@@H]1O (stereo partly specified) | 33 | > 100 | – | – | – |
| 37 | 30 | CC(CNc1ncnc2c1ncn2C1O[C@H](CO)[C@@H](O)[C@H]1O)(c1ccccc1)c1ccccc1 (stereo partly specified) | 7 | > 100 | – | – | – |
| 290 | 4700 | OC[C@H]1OC(n2cnc3c(NCCCC(c4ccccc4)c4ccccc4)ncnc32)[C@H](O)[C@@H]1O (stereo partly specified) | 32 | > 100 | – | – | – |
| 2.4 | 98 | CC(CNc1ncnc2c1ncn2[C@@H]1O[C@H](CO)[C@@H](O)[C@H]1O)c1ccccc1 (mixture of isomers) | 0.5 | 7 | – | – | – |

Continued, molecule first:

| SMILES | Ki (Adenosine receptor A1) [nM] | Ki (Adenosine A2 receptor) [nM] | ED50 (Mus musculus [1]) [mg/kg] | ED50 (Mus musculus [2]) [mg/kg] | ED50 (Rattus norvegicus [3]) [mg/kg] | ED50 (Rattus norvegicus [4]) [mg/kg] | ED50 (Rattus norvegicus [5]) [mg/kg] |
| --- | --- | --- | --- | --- | --- | --- | --- |
| OC[C@H]1O[C@@H](n2cnc3c(NCCc4ccccc4)ncnc32)[C@H](O)[C@@H]1O | 12.7 | – | 15 | > 100 | – | – | – |
| OC[C@H]1O[C@@H](n2cnc3c(NCCCCc4ccccc4)ncnc32)[C@H](O)[C@@H]1O | 15.9 | 1230 | 32 | > 100 | – | – | – |
| OC[C@H]1O[C@@H](n2cnc3c(NCCCc4ccccc4)ncnc32)[C@H](O)[C@@H]1O | 23 | 420 | 19 | > 100 | – | – | – |
| CC(C)(CNc1ncnc2c1ncn2C1O[C@H](CO)[C@@H](O)[C@H]1O)c1ccccc1 (stereo partly specified) | 16.2 | 320 | 6.7 | 30 | – | – | – |
| OC[C@H]1OC(n2cnc3c(NCC(c4ccccc4)(c4ccccc4)c4ccccc4)ncnc32)[C@H](O)[C@@H]1O (stereo partly specified) | 14300 | 26000 | 80 | > 100 | – | – | – |
| C[C@@H](Cc1ccccc1)Nc1ncnc2c1ncn2[C@@H]1OC(CO)[C@@H](O)[C@H]1O (single isomer, unassigned) | – | – | 16 | 75 | – | – | – |
| C[C@H](Cc1ccccc1)Nc1ncnc2c1ncn2[C@@H]1O[C@H](CO)[C@@H](O)[C@H]1O [(R)-PIA] | – | – | 0.8 | 2 | – | – | – |
| O=C(CCCN1CCC(O)(c2ccc(Cl)cc2)CC1)c1ccc(F)cc1 [HALOPERIDOL] | – | – | 0.27 | 12 | 0.3 | 0.24 | > 1 |
| OC[C@H]1O[C@@H](n2cnc3c(NCc4ccccc4)ncnc32)[C@H](O)[C@@H]1O [N6-BENZYLADENOSINE] | – | 280 | 22 | > 100 | – | – | – |
| OC[C@H]1O[C@@H](n2cnc3c(Nc4ccccc4)ncnc32)[C@H](O)[C@@H]1O [N6-PHENYLADENOSINE] | 4.6 | 660 | 25 | 30 | – | – | – |
| CSc1ccc2c(c1)N(CCC1CCCCN1C)c1ccccc1S2 (stereo unspecified) [THIORIDAZINE] | – | – | 3.3 | 13 | 19.7 | 13.3 | > 30 |
